Data from patent US6894068B2, “Substituted benzimidazoles as non-nucleoside inhibitors of reverse transcriptase” (The United States of America as represented by the …, priority 1997, dated 2005).
Read-outs that look alike come from different tables or passages of the source.

Key:
[1] = target: HIV-1 WT RT (Human immunodeficiency virus type 1 group M subtype B, UniProt P03366); test: biochemical; format: biochemical
[2] = system: HIV-1 isolate Y188C; test: Cytopathic cell killing assay, MT-4 cells, isolate Y188C; format: cell-based
From the text: (§1) The various HIV isolates tested in the Figures are those corresponding to wild-type virus (NL4-3) and the other strains listed by their RT mutations. The three 4×AZT isolates included in the Figures represent AZT drug-resistant variants. For example, the 4×AZT/L100I isolate has five mutations: four mutations confer increased resistance to AZT, and the other mutation is located within the NNRTI binding pocket. TZB and nevir. (nevirapine) are two well-known NNRTIs, included in this experiment for comparison purposes.
(§2) In this Example, the antiviral and cellular toxicity of NNRTIs was investigated, using the cytopathic cell killing assay described by Yang (Yang et al., “Characteristics of a Group of Non-nucleoside Reverse Transcriptase Inhibitors with Structural Diversity and Potent Anti-Human Immunodeficiency Virus Activity,” Leukemia 9:S75-S85 [1995]). Briefly, in this method cells (e.g., the CEM-SS cell line, available from the NIAID AIDS Research and Reference Program [ARRRP]) were seeded at a density of 5×10^3 cells/well, into the wells of a 96-well microtiter plate. The cells were then infected with HIV virus (either mutant or WT), at a multiplicity of infection (MOI) previously determined to provide complete cell killing by 6 days of culture post-infection (e.g., MOI of 0.01-0.05). Each of the HIV isolates was pre-titered to induce equivalent levels of infection based on cell killing or virus production, prior to their use in these assays. A range of test compound concentrations was added to the wells in triplicate (e.g., serial half-log dilutions) to evaluate inhibition of HIV infection. Controls for each assay included drug controls (drug colorimetric control wells), drug cytotoxicity control wells (cells with drug), virus control wells (cells with virus), and cell viability controls (cells only). Positive control drugs (e.g. AZT and ddC) were also run in parallel.
(§3) After six days of incubation at 37° C., cell viability was determined spectrophotometrically at 450 nm for each well, using the metabolic reduction of XTT to a soluble colored formazan. (See, Gartner and Popovic, “Virus Isolation and Production, in Aldovini and Walker (eds.), Techniques in HIV Research, Stockton Press, NY, pp. […] [1991]; and Nara and Fischinger, “Quantitative Infectivity Assay for HIV-1 and HIV-2, ” Nature 332:469-470 [1988]).
(§4) The in vitro therapeutic index (TI50) was defined as the fold-difference between the EC50 and IC50. The results for the various compounds are included in FIGS. 8 and 19.

[3] = system: WT and HIV-1 variants containing amino acid substitutions in RT; format: cell-based; settings: cytopathic cell killing assay, NNRTI-resistant HIV isolates
From the text: In these Tables, antiviral data are reported as the quantity of drug in μM required to reduce cell killing or virus production by 50% (EC50). The various HIV isolates tested in the Figures are those corresponding to wild-type virus (NL4-3) and the other strains listed by their RT mutations. The three 4×AZT isolates included in the Figures represent AZT drug-resistant variants.
Briefly, in this method cells (e.g., the CEM-SS cell line, available from the NIAID AIDS Research and Reference Program [ARRRP]) were seeded at a density of 5×10^3 cells/well, into the wells of a 96-well microtiter plate. The cells were then infected with HIV virus (either mutant or WT), at a multiplicity of infection (MOI) previously determined to provide complete cell killing by 6 days of culture post-infection (e.g., MOI of 0.01-0.05). Each of the HIV isolates was pre-titered to induce equivalent levels of infection based on cell killing or virus production, prior to their use in these assays. A range of test compound concentrations was added to the wells in triplicate (e.g., serial half-log dilutions) to evaluate inhibition of HIV infection. Controls for each assay included drug controls (drug colorimetric control wells), drug cytotoxicity control wells (cells with drug), virus control wells (cells with virus), and cell viability controls (cells only). Positive control drugs (e.g. AZT and ddC) were also run in parallel.
as §3
Antiviral and toxicity data were reported as the quantity of drug required to inhibit 50% of virus-induced cell killing or virus production (EC50), and the quantity of drug required to […] (IC50). The in vitro therapeutic index (TI50) was defined as the fold-difference between the EC50 and IC50.

[4] = system: HIV-1 isolate K101E; test: Cytopathic cell killing assay, MT-4 cells, isolate K101E; format: cell-based
From the text: as §1, §2, §3, §4

[5] = system: HIV-1 isolate 4xAZT/Y181C; test: Cytopathic cell killing assay, MT-4 cells, isolate 4xAZT/Y181C; format: cell-based; settings: Human immunodeficiency virus 1, MT4, read-out: EC50, isolate 4XAZT/Y181C
From the text: as §1, §2, §3, §4

[6] = Human immunodeficiency virus 1, MT4, read-out: EC50, isolate K101E, Table 8, MT-4 cells

Compound	IC50 [1]	inhibition at 1 µM ([1]; Table 7, 1 μM drug, WT HIV-1 RT, read-out: % inhibn (1 μM))	melting point	EC50 ([2]; Human immunodeficiency virus 1, MT4, read-out: EC50, isolate Y188C, Table 8, MT-4 cells)	EC50 ([2]; Human immunodeficiency virus 1, MT4, read-out: EC50, isolate Y188C, Table 10, values in μM)	cross-resistance profile, result in words [3]	EC50 [4, 6]	EC50 [5]	EC50 ([2]; Human immunodeficiency virus 1, MT4, read-out: EC50, isolate Y188C)	EC50 ([4]; Human immunodeficiency virus 1, MT4, read-out: EC50, isolate K101E, Table 10, values in μM)
Nc1cccc2c1nc(-c1c(F)cccc1F)n2Cc1c(F)cccc1F [Compound 3300, 4-amino-1-(2,6-difluorobenzyl)-2-(2,6-difluorophenyl)benzimidazole]	280 nM	69%	168 to 170 °C	2.7 µM	2 µM	inhibit HIV-1 better than TZB	> 20 µM	> 10 µM	–	–
CCc1cccc2c1nc(-c1c(F)cccc1F)n2Cc1c(F)cccc1F [Compound 4011, 1-(2,6-difluorobenzyl)-2-(2,6-difluorophenyl)-4-ethylbenzimidazole]	–	–	165 to 166 °C	–	–	inhibit HIV-1 better than TZB	> 20 µM	> 20 µM	5.5 µM	> 50 µM
